# Laboratory results from patent publication US7157442B2, “Antibacterial compound” (Sankyo Company, Limited, priority 1999, dated 2007).
# System: M. tuberculosis No. 74
# Assay: In vitro antibacterial activity (2): MIC by broth dilution method
# Assay type: cell-based, Mycobacterium tuberculosis
# Conditions: rifampicin-resistant strain; for MIC: Mycobacterium tuberculosis, NO.74, Middlebrook 7H9 broth, 35° C. for 10–21 days, read-out: MICs against Mycobacterium tuberculosis, M. tuberculosis No. 74
SMILES,MIC,antibacterial activity against M. tuberculosis No. 74 (in words)
CO[C@H]1[C@@H](O)[C@H](n2ccc(=O)[nH]c2=O)O[C@@H]1[C@@H](O[C@H]1OC(C(=O)Nc2ccc(F)c(F)c2)=C[C@H](O)[C@@H]1O)C(N)=O [Exemplification Compound No. 3712],8 µg/mL,excellent antibacterial activity
"CO[C@H]1/C=C/O[C@@]2(C)Oc3c(C)c(O)c4c(O)c(c(/C=N/N5CCN(C)CC5)c(O)c4c3C2=O)NC(=O)/C(C)=C\C=C\[C@H](C)[C@H](O)[C@@H](C)[C@@H](O)[C@@H](C)[C@H](OC(C)=O)[C@@H]1C [rifampicin, reference compound]",128 µg/mL,–
